{"source": "paper doi:10.1101/2021.04.08.439011v1", "about": "(biorxiv, 2021)", "conditions_in_all_cases": "1 µM; binder", "key": {"[1]": {"target": "DRAK1 (Homo sapiens, UniProt Q9UEE5)"}, "[2]": {"target": "DDR2 (Homo sapiens, UniProt Q16832)"}, "[3]": {"target": "CHEK2 (Homo sapiens, UniProt O96017)"}, "[4]": {"target": "FLT3(R834Q) (Homo sapiens, UniProt P36888, R834Q)"}, "[5]": {"target": "MATK (Homo sapiens, UniProt P42679)", "sequence (P42679 whole entry)": "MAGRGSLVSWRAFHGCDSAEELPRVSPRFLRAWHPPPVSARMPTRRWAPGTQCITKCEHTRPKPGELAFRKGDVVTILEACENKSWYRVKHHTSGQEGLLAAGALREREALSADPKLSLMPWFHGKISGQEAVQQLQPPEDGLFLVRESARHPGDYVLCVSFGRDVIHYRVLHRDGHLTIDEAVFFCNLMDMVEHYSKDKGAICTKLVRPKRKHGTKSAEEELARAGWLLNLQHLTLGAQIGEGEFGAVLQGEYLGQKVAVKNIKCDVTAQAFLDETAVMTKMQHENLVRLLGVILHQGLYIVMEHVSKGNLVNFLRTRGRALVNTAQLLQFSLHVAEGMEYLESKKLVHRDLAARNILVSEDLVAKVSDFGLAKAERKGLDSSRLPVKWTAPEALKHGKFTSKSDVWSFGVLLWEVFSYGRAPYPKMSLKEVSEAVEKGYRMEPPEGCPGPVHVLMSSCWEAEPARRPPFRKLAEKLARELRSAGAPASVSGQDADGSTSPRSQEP"}, "[6]": {"target": "CSNK1G1 (Homo sapiens, UniProt Q9HCP0)"}, "[7]": {"target": "MARK2 (Homo sapiens, UniProt Q7KZI7)", "sequence (Q7KZI7 whole entry)": "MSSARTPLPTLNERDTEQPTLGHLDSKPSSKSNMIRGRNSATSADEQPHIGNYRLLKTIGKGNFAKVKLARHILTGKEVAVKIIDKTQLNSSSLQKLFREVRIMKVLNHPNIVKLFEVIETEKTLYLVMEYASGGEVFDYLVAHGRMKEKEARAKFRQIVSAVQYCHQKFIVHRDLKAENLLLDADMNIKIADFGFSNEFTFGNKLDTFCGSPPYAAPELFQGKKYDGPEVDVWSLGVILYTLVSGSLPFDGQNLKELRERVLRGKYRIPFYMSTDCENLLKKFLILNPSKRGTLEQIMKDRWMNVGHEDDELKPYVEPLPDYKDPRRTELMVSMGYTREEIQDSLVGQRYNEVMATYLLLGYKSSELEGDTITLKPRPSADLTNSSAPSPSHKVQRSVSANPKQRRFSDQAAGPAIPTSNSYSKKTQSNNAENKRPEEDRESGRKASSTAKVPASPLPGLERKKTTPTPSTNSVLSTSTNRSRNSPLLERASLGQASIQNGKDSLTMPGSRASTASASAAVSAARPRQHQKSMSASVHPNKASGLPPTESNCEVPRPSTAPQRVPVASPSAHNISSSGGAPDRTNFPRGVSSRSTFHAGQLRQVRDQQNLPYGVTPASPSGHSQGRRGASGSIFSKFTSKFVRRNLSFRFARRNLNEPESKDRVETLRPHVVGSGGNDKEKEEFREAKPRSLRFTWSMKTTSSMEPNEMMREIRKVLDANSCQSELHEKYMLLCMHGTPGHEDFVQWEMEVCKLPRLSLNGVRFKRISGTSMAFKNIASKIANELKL"}, "[8]": {"target": "PIK3CA(H1047L) (Homo sapiens, UniProt P42336, H1047L)"}, "[9]": {"target": "ABL2 (Homo sapiens, UniProt P42684)"}, "[10]": {"target": "EPHA5 (Homo sapiens, UniProt P54756)", "sequence (P54756 whole entry)": "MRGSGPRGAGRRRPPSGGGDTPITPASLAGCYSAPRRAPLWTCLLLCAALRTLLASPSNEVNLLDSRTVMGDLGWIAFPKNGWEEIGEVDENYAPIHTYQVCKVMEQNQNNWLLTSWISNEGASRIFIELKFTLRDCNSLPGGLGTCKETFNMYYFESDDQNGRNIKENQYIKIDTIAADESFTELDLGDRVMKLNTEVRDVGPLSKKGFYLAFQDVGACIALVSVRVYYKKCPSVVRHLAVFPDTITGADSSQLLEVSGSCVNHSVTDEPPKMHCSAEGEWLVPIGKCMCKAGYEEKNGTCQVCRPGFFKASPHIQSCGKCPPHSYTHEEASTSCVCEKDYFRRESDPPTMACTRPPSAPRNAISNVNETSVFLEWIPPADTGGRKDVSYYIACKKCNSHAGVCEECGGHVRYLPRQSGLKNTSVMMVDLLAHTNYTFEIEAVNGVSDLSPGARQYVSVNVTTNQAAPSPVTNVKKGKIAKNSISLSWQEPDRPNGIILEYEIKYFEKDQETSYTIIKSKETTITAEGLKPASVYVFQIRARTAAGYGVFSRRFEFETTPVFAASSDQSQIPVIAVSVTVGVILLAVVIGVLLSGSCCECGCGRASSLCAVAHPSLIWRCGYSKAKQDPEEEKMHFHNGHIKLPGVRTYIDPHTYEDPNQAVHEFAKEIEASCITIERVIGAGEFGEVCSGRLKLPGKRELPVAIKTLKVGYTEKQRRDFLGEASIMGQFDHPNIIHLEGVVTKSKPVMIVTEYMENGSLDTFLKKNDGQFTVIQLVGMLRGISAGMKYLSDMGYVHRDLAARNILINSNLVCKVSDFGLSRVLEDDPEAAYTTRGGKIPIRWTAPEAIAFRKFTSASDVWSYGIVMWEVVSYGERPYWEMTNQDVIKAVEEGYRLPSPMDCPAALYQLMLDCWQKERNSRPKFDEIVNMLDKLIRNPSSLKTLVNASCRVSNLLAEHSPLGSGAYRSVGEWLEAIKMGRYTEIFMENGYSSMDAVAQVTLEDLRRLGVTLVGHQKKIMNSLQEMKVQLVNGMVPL"}, "[11]": {"target": "DSTYK (Homo sapiens, UniProt Q6XUX3)"}, "[12]": {"target": "PIK4CB (Homo sapiens, UniProt Q9UBF8)"}, "[13]": {"target": "MKNK1 (Homo sapiens, UniProt Q9BUB5)"}, "[14]": {"target": "IRAK4 (Homo sapiens, UniProt Q9NWZ3)", "sequence (Q9NWZ3 whole entry)": "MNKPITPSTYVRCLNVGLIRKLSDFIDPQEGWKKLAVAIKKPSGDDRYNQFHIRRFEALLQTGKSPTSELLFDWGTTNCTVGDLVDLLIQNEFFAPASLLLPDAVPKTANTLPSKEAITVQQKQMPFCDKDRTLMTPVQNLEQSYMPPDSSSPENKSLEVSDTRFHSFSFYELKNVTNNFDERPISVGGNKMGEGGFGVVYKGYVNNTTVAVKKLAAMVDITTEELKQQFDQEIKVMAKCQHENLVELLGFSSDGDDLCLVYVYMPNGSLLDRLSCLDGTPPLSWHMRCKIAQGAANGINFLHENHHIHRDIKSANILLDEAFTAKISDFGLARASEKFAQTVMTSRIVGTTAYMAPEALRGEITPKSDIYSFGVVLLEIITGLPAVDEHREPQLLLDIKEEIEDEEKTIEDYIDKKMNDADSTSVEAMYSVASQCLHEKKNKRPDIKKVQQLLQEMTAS"}, "[15]": {"target": "S6K1 (Homo sapiens, UniProt P23443)"}, "[16]": {"target": "LYN (Homo sapiens, UniProt P07948)"}, "[17]": {"target": "BMPR1A (Homo sapiens, UniProt P36894)"}, "[18]": {"target": "PAK6 (Homo sapiens, UniProt Q9NQU5)"}, "[19]": {"target": "ULK3 (Homo sapiens, UniProt Q6PHR2)", "sequence (Q6PHR2 whole entry)": "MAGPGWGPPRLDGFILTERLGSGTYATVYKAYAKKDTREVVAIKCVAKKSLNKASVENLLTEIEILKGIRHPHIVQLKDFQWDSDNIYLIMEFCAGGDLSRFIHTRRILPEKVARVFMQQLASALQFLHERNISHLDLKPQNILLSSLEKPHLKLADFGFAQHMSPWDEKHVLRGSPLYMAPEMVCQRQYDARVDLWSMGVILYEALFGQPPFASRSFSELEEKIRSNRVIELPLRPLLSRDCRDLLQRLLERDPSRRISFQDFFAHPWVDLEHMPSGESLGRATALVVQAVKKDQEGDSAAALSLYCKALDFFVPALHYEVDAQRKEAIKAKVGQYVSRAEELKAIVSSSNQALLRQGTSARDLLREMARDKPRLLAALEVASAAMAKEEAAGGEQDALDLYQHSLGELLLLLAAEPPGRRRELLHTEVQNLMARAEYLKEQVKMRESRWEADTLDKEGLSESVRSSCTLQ"}, "[20]": {"target": "TGFBR1 (Homo sapiens, UniProt P36897)", "sequence (P36897 whole entry)": "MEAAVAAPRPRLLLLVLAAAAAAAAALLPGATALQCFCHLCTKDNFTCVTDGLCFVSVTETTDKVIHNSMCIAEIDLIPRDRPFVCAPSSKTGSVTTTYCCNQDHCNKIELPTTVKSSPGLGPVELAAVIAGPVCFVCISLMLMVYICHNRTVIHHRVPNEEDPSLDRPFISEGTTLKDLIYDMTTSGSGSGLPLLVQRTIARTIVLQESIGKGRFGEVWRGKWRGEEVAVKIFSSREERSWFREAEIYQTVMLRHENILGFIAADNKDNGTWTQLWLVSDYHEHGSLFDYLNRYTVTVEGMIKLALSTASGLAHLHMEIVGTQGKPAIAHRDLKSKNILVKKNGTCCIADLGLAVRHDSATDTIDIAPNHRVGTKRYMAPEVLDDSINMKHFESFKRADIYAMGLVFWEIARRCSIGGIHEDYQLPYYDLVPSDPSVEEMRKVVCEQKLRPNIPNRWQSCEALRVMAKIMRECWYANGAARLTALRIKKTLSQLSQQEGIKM"}, "[21]": {"target": "CIT (Homo sapiens, UniProt O14578)"}, "[22]": {"target": "FLT3(ITD,D835V) (Homo sapiens, UniProt P36888, D835V/ITD)"}, "[23]": {"target": "MAPKAPK5 (Homo sapiens, UniProt Q8IW41)"}, "[24]": {"target": "SRPK1 (Homo sapiens, UniProt Q96SB4)", "sequence (Q96SB4 whole entry)": "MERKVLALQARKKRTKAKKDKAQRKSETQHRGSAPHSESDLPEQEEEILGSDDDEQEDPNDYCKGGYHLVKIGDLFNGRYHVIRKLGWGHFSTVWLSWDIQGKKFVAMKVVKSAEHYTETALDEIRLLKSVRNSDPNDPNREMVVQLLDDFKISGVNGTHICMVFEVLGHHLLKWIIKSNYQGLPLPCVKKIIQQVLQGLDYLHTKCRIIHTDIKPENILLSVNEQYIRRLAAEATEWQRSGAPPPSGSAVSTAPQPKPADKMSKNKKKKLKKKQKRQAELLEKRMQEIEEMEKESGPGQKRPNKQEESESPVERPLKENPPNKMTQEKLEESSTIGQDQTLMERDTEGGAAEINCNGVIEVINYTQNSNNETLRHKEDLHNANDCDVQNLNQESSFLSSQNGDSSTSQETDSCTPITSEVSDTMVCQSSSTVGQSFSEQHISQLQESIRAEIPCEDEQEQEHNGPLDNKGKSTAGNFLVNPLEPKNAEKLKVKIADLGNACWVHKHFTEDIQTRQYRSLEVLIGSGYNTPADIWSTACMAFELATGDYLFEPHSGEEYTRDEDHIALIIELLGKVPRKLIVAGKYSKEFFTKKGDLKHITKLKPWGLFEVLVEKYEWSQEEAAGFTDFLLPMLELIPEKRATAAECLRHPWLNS"}, "[25]": {"target": "MARK3 (Homo sapiens, UniProt P27448)"}, "[26]": {"target": "KIT(V559D,V654A) (Homo sapiens, UniProt P10721, V559D/V654A)"}, "[27]": {"target": "MUSK (Homo sapiens, UniProt O15146)"}, "[28]": {"target": "EPHA7 (Homo sapiens, UniProt Q15375)"}, "[29]": {"target": "CDK9 (Homo sapiens, UniProt P50750)", "sequence (P50750 whole entry)": "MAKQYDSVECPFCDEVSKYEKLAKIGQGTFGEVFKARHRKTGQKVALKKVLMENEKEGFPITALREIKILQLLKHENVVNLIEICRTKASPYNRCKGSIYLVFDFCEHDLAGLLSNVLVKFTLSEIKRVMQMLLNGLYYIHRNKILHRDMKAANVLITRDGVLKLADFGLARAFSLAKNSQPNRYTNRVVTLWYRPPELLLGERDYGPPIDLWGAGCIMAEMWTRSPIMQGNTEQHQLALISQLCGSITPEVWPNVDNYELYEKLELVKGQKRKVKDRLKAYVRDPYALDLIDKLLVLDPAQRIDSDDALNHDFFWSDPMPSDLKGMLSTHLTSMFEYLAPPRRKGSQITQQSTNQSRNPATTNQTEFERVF"}, "[30]": {"target": "FGFR3 (Homo sapiens, UniProt P22607)"}}, "data": [{"smiles": "CNc1ncc2cc(-c3ccc(-c4cccc(C)n4)cc3Cl)c(=O)n(C[C@H]3OC[C@H](N)CO3)c2n1", "note": "[compound 6, G-5555]", "values": [{"measurement": "Percent Control", "setting": "[1]", "value": 100, "unit": "%"}, {"measurement": "Percent Control", "setting": "[2]", "value": 100, "unit": "%"}, {"measurement": "Percent Control", "setting": "[3]", "value": 100, "unit": "%"}, {"measurement": "Percent Control", "setting": "[4]", "value": 100, "unit": "%"}, {"measurement": "Percent Control", "setting": "[5]", "value": 100, "unit": "%"}, {"measurement": "Percent Control", "setting": "[6]", "value": 100, "unit": "%"}, {"measurement": "Percent Control", "setting": "[7]", "value": 49, "unit": "%"}, {"measurement": "Percent Control", "setting": "[8]", "value": 100, "unit": "%"}, {"measurement": "Percent Control", "setting": "[9]", "value": 100, "unit": "%"}, {"measurement": "Percent Control", "setting": "[10]", "value": 100, "unit": "%"}, {"measurement": "Percent Control", "setting": "[11]", "value": 91, "unit": "%"}, {"measurement": "Percent Control", "setting": "[12]", "value": 100, "unit": "%"}, {"measurement": "Percent Control", "setting": "[13]", "value": 100, "unit": "%"}, {"measurement": "Percent Control", "setting": "[14]", "value": 95, "unit": "%"}, {"measurement": "Percent Control", "setting": "[15]", "value": 58, "unit": "%"}, {"measurement": "Percent Control", "setting": "[16]", "value": 74, "unit": "%"}, {"measurement": "Percent Control", "setting": "[17]", "value": 85, "unit": "%"}, {"measurement": "Percent Control", "setting": "[18]", "value": 45, "unit": "%"}, {"measurement": "Percent Control", "setting": "[19]", "value": 52, "unit": "%"}, {"measurement": "Percent Control", "setting": "[20]", "value": 100, "unit": "%"}, {"measurement": "Percent Control", "setting": "[21]", "value": 100, "unit": "%"}, {"measurement": "Percent Control", "setting": "[22]", "value": 74, "unit": "%"}, {"measurement": "Percent Control", "setting": "[23]", "value": 100, "unit": "%"}, {"measurement": "Percent Control", "setting": "[24]", "value": 98, "unit": "%"}, {"measurement": "Percent Control", "setting": "[25]", "value": 18, "unit": "%"}, {"measurement": "Percent Control", "setting": "[26]", "value": 100, "unit": "%"}, {"measurement": "Percent Control", "setting": "[27]", "value": 100, "unit": "%"}, {"measurement": "Percent Control", "setting": "[28]", "value": 100, "unit": "%"}, {"measurement": "Percent Control", "setting": "[29]", "value": 100, "unit": "%"}, {"measurement": "Percent Control", "setting": "[30]", "value": 100, "unit": "%"}]}]}
